# Measured values published in the supplement of paper PMC13380429.
# How the values were obtained:
# Details in all cases: 72 h
# [1] = tested on: Caco-2; assay: cell viability relative to DMSO; higher = less toxic
# [2] = tested on: Calu-3; assay: as above
# [3] = tested on: HepG2; assay: as above
# [4] = tested on: U2OS; assay: as above
# [5] = tested on: Vero E6; assay: as above
# [6] = tested on: Caco-2; assay: relative viability EC50 (midpoint between 100% and the lowest measured viability); higher = less toxic
# [7] = tested on: Calu-3; assay: as above
# [8] = tested on: HepG2; assay: as above
# [9] = tested on: U2OS; assay: as above
# [10] = tested on: Vero E6; assay: as above
# [11] = tested on: Caco-2; assay: drug sensitivity score (DSS) for viability; higher = more toxic; extreme values may be limits of the assay
# [12] = tested on: Calu-3; assay: as above
# [13] = tested on: HepG2; assay: as above
# [14] = tested on: U2OS; assay: as above
# [15] = tested on: Vero E6; assay: as above
Structure (SMILES),cell viability ([1]; 1 nM),cell viability ([1]; 10 nM),cell viability ([1]; 100 nM),cell viability ([1]; 1000 nM),cell viability ([1]; 10000 nM),cell viability ([2]; 1 nM),cell viability ([2]; 10 nM),cell viability ([2]; 100 nM),cell viability ([2]; 1000 nM),cell viability ([2]; 10000 nM),cell viability ([3]; 1 nM),cell viability ([3]; 10 nM),cell viability ([3]; 100 nM),cell viability ([3]; 1000 nM),cell viability ([3]; 10000 nM),cell viability ([4]; 1 nM),cell viability ([4]; 10 nM),cell viability ([4]; 100 nM),cell viability ([4]; 1000 nM),cell viability ([4]; 10000 nM),cell viability ([5]; 1 nM),cell viability ([5]; 10 nM),cell viability ([5]; 100 nM),cell viability ([5]; 1000 nM),cell viability ([5]; 10000 nM),relative viability EC50 [6],relative viability EC50 [7],relative viability EC50 [8],relative viability EC50 [9],relative viability EC50 [10],drug sensitivity score [11],drug sensitivity score [12],drug sensitivity score [13],drug sensitivity score [14],drug sensitivity score [15]
CC(C)C[C@@H](N)C1(c2ccc(Cl)cc2)CCC1,101%,103%,108%,96%,90.3%,96%,104%,109%,89.9%,102%,104%,99.9%,110%,103%,104%,98.9%,98.3%,94.2%,99%,94.1%,106%,101%,100%,98.8%,105%,> 10 µM,> 10 µM,> 10 µM,> 10 µM,> 10 µM,0,0,0,0,0
CC(C)OC(=O)C1=CN(C(=O)c2ccc(F)c(F)c2)CC(C)(C)c2c1[nH]c1ccccc21,84.5%,99.7%,86.1%,95.2%,89.3%,104%,91.3%,103%,96.5%,97.8%,95.3%,102%,97.3%,92.1%,112%,98.3%,99.6%,95.9%,100%,96.3%,101%,97.6%,95.4%,98.7%,98.9%,> 10 µM,> 10 µM,> 10 µM,> 10 µM,> 10 µM,0,0,0,0,0
CCC[C@H](N[C@H]1CCc2cc(F)cc(F)c2C1)C(=O)Nc1cn(C(C)(C)CNCC(C)(C)C)cn1,102%,91.8%,102%,98.2%,86.1%,95%,105%,108%,103%,84.4%,105%,104%,104%,93.9%,80.1%,102%,94.7%,99.7%,92.4%,87.9%,99.7%,104%,107%,95.5%,89.1%,> 10 µM,> 10 µM,> 10 µM,> 10 µM,> 10 µM,0.3,0.2,1.3,0.2,0.1
CCCc1c(OCCCOc2ccc(OCC(=O)O)cc2)ccc(C(C)=O)c1O,97.2%,90.6%,88.8%,95.7%,103%,101%,94.8%,93.6%,101%,107%,102%,106%,107%,104%,92.8%,94.3%,98.6%,93.4%,96.5%,102%,107%,99.5%,106%,102%,94.2%,> 10 µM,> 10 µM,> 10 µM,> 10 µM,> 10 µM,0,0,0,0,0
CCOC(=O)C(=O)Nc1cccc(OC)c1C(N)=O,83.3%,96.6%,103%,104%,102%,83.7%,95.3%,91.2%,97.5%,88.8%,102%,96.7%,93.2%,102%,104%,98.9%,98.9%,96%,101%,97.6%,103%,94.9%,108%,105%,106%,> 10 µM,> 10 µM,> 10 µM,> 10 µM,> 10 µM,0,0,0,0,0
